Tests used:
[1] = ATF2W alone; 222 nm, 1 to 95 °C, pH 7.4, 10 mM TCEP.HCl; two-state model
Procedure: (§1) (DMF). Deprotection was performed by addition of 0.75 mL 30% pyrrolidine into the coupling reaction. Peptides were acetylated at the N-terminus by a final reaction with 3x acetic anhydride, 4.5x diisopropylethylamine in DMF for one hour at room temperature. Incubation in a cleavage mixture (95% TFA, 2.5% triisopropylsilane, 2.5% H2O, 10 mL) for 4 h at room temperature cleaved the peptide from the resin and removed side chain protecting groups.
(§2) 2.5% DODT was added to the cleavage cocktail for ATF2. The resin was removed by filtration and cleaved peptides were precipitated in diethyl ether at -80°C and centrifuged.
This pellet was washed a further four times with diethyl ether before it was dried overnight at room temperature. Peptides were resuspended in 1:1 water:acetonitrile (0.1% TFA) before purification using RP-HPLC with a Jupiter Proteo column (4-μm particle size, 90 Å pore size, 250 × 10 mm; Phenomenex) using a water:acetonitrile gradient (0.1% TFA). Peptide masses and purity (>95%) were verified by electrospray ionisation mass spectrometry. Upon solubilising in buffer, peptides were centrifuged to ensure insoluble/aggregated material was removed before peptide concentration determination.
Circular Dichroism: An Applied Photophysics Chirascan was used for CD measurements, with a 200 µL sample in a 1 mm path length CD cell. […]

[2] = biological target: T1, ATF2-CRE DNA interaction (Homo sapiens, UniProt P15336); test: FP antagonism assay ATF2-CRE; assay type: biochemical; details: up to 12 μM ATF2W
T1 construct: human ATF2 bZIP domain spans from Asp352 to Gln410; made in house; host or cells: chemical synthesis (Fmoc solid-phase peptide synthesis), no expression host
T1 sequence (P15336 352-410): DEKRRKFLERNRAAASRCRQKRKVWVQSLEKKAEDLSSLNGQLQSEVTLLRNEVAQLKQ
Procedure: Fluorescence polarization (FP) was next utilized to confirm that ATF2W binding induces the intended antagonism of the ATF2-CRE interaction. […] To assess ATF2W antagonism, 625 nM ATF2, which corresponded to 80% of the maximum DNA binding, was incubated with CRE DNA (10 nM) and varied concentrations of ATF2W (29 nM-12 μM). […] This represents a ∼ 3-fold selectivity for ATF2. […] As the peptide library was designed using established coiled coil interaction rules, it was expected that many sequences would bind the target.
as §1, §2
This pellet was washed a further four times with diethyl ether before it was dried overnight at room temperature. […]

Substance: Ac-LEQQLEELAQENEELEKEAAELQQQIARLKNEVAKLENENKTLDREIKALQREYSHKSD-NH2 [ATF2W]
- Tm [1]: 37 °C
- ATF2-CRE antagonism at top concentrations [2]: reducing the FP value to that of free DNA

— paper PMC12648313, “Enhancing the Efficacy, Utility, and Throughput of the Transcription Block Survival Peptide Library Screening Platform” (JACS Au, 2025)
